Tested on: HCV
Assay: anti-HCV activity assay in cell culture (HCV RNA by one-step quantitative RT-PCR)
Type: cell-based
Conditions: compound at 10 μmol/L, Huh7.5 cells infected with HCV virus particles, cultured 96 hrs, HCV RNA in cells vs virus control group; for inhibition at 10 µM: Hepatitis C virus, Huh7.5, 96 h, read-out: percent inhibition (%)
Experimental: The assay results of anti-HCV activity of the compound synthesized according to the present invention in cell culture are shown in Table 1, wherein the molecular weight is calculated by ChemBioDraw 12.0 software from the molecular structure of each compound.
100 μL Huh7.5 cells were seeded in 96-well cell culture plate to 1×10^5/mL density, cultured in an incubator at 37° C. under the condition of 5% CO2 and saturated humidity for 6 hrs. Huh7.5 cells were then infected by viral solution containing HCV virus particles, and solutions of compound of the present invention at a concentration of 10 μmol/L liquid were added respectively, cultured for further 96 hrs, and then total RNA was extracted from the cells. Amount of HCV RNA in cells was determined by one-step quantitative RT-PCR, and compared to RNA levels of the virus control group to calculate the inhibition rate of compounds on HCV.

CN1CCN(c2ccc(C#N)c(CNc3ccc(C4CCCCC4)cc3)c2)CC1 [Compound 11, 4-(4-methylpiperazin-1-yl)-2-(p-cyclohexylphenylamino)methylbenzonitrile] was tested, and the inhibition at 10 µM was 97%.

COc1ccc(N2CCN(Cc3cc(N(C)CCN(C)C)ccc3C#N)CC2)cc1 [VI-31, 4-(N,N′,N′-trimethyl-1,2-ethylenediamin-1-yl)-2-(4-p-methoxyphenylpiperazin-1-yl)methylbenzonitrile] was tested, and the “percent inhibition (%)” value was 91%.

With COc1ccc(N2CCN(Cc3cc(NCCN(C)C)ccc3C#N)CC2)cc1 [VI-30, 4-(N′,N′-dimethyl-1,2-ethylenediamin-1-yl)-2-(4-p-methoxyphenylpiperazin-1-yl)methylbenzonitrile] the “percent inhibition (%)” value was 66%.

Work on CN1CCN(c2ccc(C#N)c(CN3CCN(c4ccc(C5CCCCC5)cc4)CC3)c2)CC1 [VI-12, 4-(4-methylpiperazin-1-yl)-2-(4-(4-cyclohexylphenyl)piperazin-1-yl)methylbenzonitrile] yielded an inhibition at 10 µM of 86%.

In the case of CN(C)C1CCN(c2ccc(C#N)c(CN3CCN(c4ccc(Cl)cc4)CC3)c2)C1 (centres unmarked) [VI-44, 4-((3-dimethylamino)pyrrolidin-1-yl)-2-(4-p-chlorophenylpiperazin-1-yl)methylbenzonitrile], the “percent inhibition (%)” value is reported as 89%.

Reference: patent US10252987B2, “Type of antiviral compound” (Institute of Medicinal Biotechnology, Chinese Academy of …, priority 2015, dated 2019)
